In patent publication US20240083857A1, “2-Methyl-Quinazolines” (Bayer Pharma Aktiengesellschaft, priority 2017, published 2024):
pIC50: −log10 of the molar value.

Experiments:
[1] = molecular target: K-Ras^G12C : hSOS1 interaction (Homo sapiens, UniProt Q07889); assay: Biochemical assay 1: K-Ras^G12C interaction assay with hSOS1 (HTRF); assay type: binding; conditions: read-out: Assay 1 (KRAS-SOS Interaction) activity expressed as IC50
Experimental: Biochemical assay 1: K-Ras^G12C Interaction Assay with hSOS1
This assay quantifies the equilibrium interaction of human SOS1 with K-Ras^Gl2C. Detection of the interaction is achieved by measuring homogenous time-resolved fluorescence resonance energy transfer (HTRF) from antiGST-Europium (FRET donor) bound to GST-K-Ras^G12C to anti-6His-XL665 bound to His-tagged hSOS1 (FRET-acceptor).
The assay buffer contained 5 mM HEPES pH 7.4 (Applichem), 150 mM NaCl (Sigma), 10 mM EDTA (Promega), 1 mM DTT (Thermofisher), 0.05% BSA Fraction V, pH 7.0, (ICN Biomedicals), 0.0025% (v/v) Igepal (Sigma) and 100 mM KF (FLUKA).
Concentrations of protein batches used were optimized to be within the linear range of the HTRF signal. A Ras working solution was prepared in assay buffer containing typically 10 nM GST-hK-RasG12C and 2 nM antiGST-Eu(K) (Cisbio, France). A SOS working solution was prepared in assay buffer containing typically 20 nM His-hSOS1 and 10 nM anti-6His-XL665 (Cisbio, France). An inhibitor control solution was prepared in assay buffer containing 10 nM anti-6His-XL665 without hSOS1.
(§1) Fifty nl of a 100-fold concentrated solution of the test compound in DMSO were transferred into a black microtiter test plate (384 or 1536, Greiner Bio-One, Germany). For this, either a Hummingbird liquid handler (Digilab, MA, USA) or an Echo acoustic system (Labcyte, CA, USA) was used.
(§2) All steps of the assay were performed at 20° C. A volume of 2.5 μl of the Ras working solution was added to all wells of the test plate using a Multidrop dispenser (Thermo Labsystems). After 2 min preincubation, 2.5 μl of the SOS working solution were added to all wells except for those wells at the side of the test plate that were subsequently filled with 2.5 μl of the inhibitor control solution. After 60 min incubation the fluorescence was measured with a Pherastar (BMG, Germany) using the HTRF module (excitation 337 nm, emission 1: 620 nm, emission 2: 665 nm).
(§3) IC50 values were calculated by 4-Parameter fitting using a commercial software package (Genedata Screener, Switzerland).

[2] = molecular target: human SOS1 (nucleotide exchange of K-Ras^G12C) (Homo sapiens, UniProt Q07889); assay: Biochemical assay 2: K-Ras^G12C activation assay by hSOS1 at high GTP concentration (HTRF); conditions: high GTP; for pIC50: read-out: Assay 2 (KRAS-Activation by SOS high GTP) activity expressed as IC50
Source text: Biochemical Assay 2: K-Ras^G12C Activation Assay by hSOS1 at High GTP Concentration
This assay quantifies human SOS1-mediated nucleotide exchange of K-Ras^G12C preloaded with a fluorescent […] and in presence of an excess of free GTP. Loaded hK-Ras^G12C generates a high HTRF-signal by energy transfer from antiGST-Terbium (FRET donor) bound to K-Ras to the loaded fluorescent GDP analog (FRET-acceptor). SOS1 activity exchanges the fluorescent GDP for non-fluorescent GTP and therefore leads to a reduction of the HTRF signal.
The fluorescent GDP-analog EDA-GDP-Dy647P1 (2′/3′-O-(2-Aminoethyl-carbamoyl)-guanosine-5′-diphosphate labelled with Dy647P1 (Dyomics GmbH, Germany)) was synthesized by Jena Biosciences GmbH (Germany) and supplied as a 1 mM aqueous solution.
Concentrations of protein batches used were optimized to be within the linear range of the HTRF signal.
Preparation of GST-tagged hK-Ras^Gl2C loaded with fluorescent nucleotide was performed as follows: incubation of 11.5 μM hK-Ras^Gl2C with 5-fold excess GDP-Dy647 nucleotide (54 μM) in 500 μl NLS-buffer (RAS activation Kit Jena Bioscience, Kat. #PR-950) for 10 min at 37° C. Addition of 20 μl 1 M MgCl2 (Sigma) to final 40 mM and store on ice. Purification into buffer (10 mM HEPES pH 7.4 (Applichem), 150 mM NaCl (Sigma), 5 mM MgCl2 (Sigma)) by use of a PD-Minitrap desalting column (GE Healthcare). Concentration of 1 ml purified hK-Ras-GDP-Dy647 is approx. 4-5 μM.
(§4) The assay buffer contained 10 mM HEPES pH 7.4 (Applichem), 150 mM NaCl (Sigma), 5 mM MgCl2 (Sigma), 1 mM DTT (Thermofisher), 0.05% BSA Fraction V, pH 7.0, (ICN Biomedicals), 0.0025% (v/v) Igepal (Sigma).
A Ras working solution was prepared in assay buffer containing typically 80 nM loaded GST-hK-RasG12C-EDA-GDP-Dy647P1 and 2 nM antiGST-Tb (Cisbio, France). A hSOS1 working solution was prepared in assay buffer containing typically 8 nM His-hSOS1 and 100 μM GTP (Jena Bioscience, Germany). An inhibitor control solution was prepared in assay buffer containing the same concentration of […].
as §1
as §2, with “hSOS1” for “SOS”, “20” for “60”
as §3

[3] = molecular target: human SOS1 (loading of human K-Ras^G12C-GDP with fluorescent GTP-analog) (Homo sapiens, UniProt Q07889); assay: Biochemical assay 3: K-Ras^G12C activation assay by hSOS1 (HTRF); conditions: no GTP; for pIC50: read-out: Assay 3 (KRAS-Activation by SOS no GTP) activity expressed as IC50; for inhibition at 20 µM: read-out: Assay 3 (KRAS-Activation by SOS no GTP) activity expressed as % inhibition at 20 μM
Source text: Biochemical assay 3: K-Ras^G12C Activation Assay by hSOS1
K-Ras is a small GTPase that can bind GDP and GTP. The guanine nucleotide exchange factor SOS catalyzes the activation of K-Ras by promoting the exchange of GDP to GTP. SOS binds to K-Ras-GDP thereby opening the GDP-binding pocket to facilitate GDP release. Rebinding of excess nucleotide leads to dissociation of the K-Ras-SOS intermediate complex leaving K-Ras loaded with the nucleotide.
This assay quantifies human SOS1-mediated loading of human K-Ras^G12C-GDP with a fluorescent GTP-analog. Detection of successful loading is achieved by measuring homogenous time-resolved fluorescence resonance energy transfer (HTRF) from antiGST-Terbium (FRET donor) bound to GST-K-RasG12C to the loaded fluorescent GTP analog (FRET-acceptor).
The fluorescent GTP-analog EDA-GTP-Dy647P1 (2′/3′-O-(2-Aminoethyl-carbamoyl)-guanosine-5′-triphosphate labelled with Dy647P1 (Dyomics GmbH, Germany)) was synthesized by Jena Biosciences GmbH (Germany) and supplied as a 1 mM aqueous solution.
as §4
Concentrations of protein batches used were optimized to be within the linear range of the HTRF signal. A Ras working solution was prepared in assay buffer containing typically 100 nM GST-hK-RasG12C and 2 nM antiGST-Tb (Cisbio, France). A hSOS1 working solution was prepared in assay buffer containing typically 20 nM hSOS1 and 200 nM EDA-GTP-Dy647P1. An inhibitor control solution was prepared in assay buffer containing 200 nM EDA-GTP-Dy647P1 without hSOS1.
as §1
as §2, with “After 10” for “After 2”, “the hSOS1” for “the SOS”, “After 30” for “After 60”
as §3

SMILES	pIC50 [1]	pIC50 [2]	pIC50 [3]	inhibition at 20 µM ([2]; read-out: Assay 2 (KRAS-Activation by SOS high GTP) activity expressed as % inhibition at 20 μM, at 20 μM) [%]	inhibition at 20 µM [3] [%]
COc1cc2nc(C)nc(N[C@@H](C)c3ccc(-c4cccc5cnccc45)s3)c2cc1OC (racemic) [Example 45, N-{1-[5-(isoquinolin-5-yl)thiophen-2-yl]ethyl}-6,7-dimethoxy-2-methylquinazolin-4-amine]	5.82	5.66	5.96	–	–
COc1cc2nc(C)nc(N[C@@H](C)c3ccc(-c4cncc(C)c4)s3)c2cc1OC (racemic) [Example 46, 6,7-dimethoxy-2-methyl-N-{1-[5-(5-methylpyridin-3-yl)thiophen-2-yl]ethyl}quinazolin-4-amine]	5.63	5.42	5.39	–	–
COc1cc2nc(C)nc(N[C@@H](C)c3ccc(-c4ccccc4C(=O)N(C)C)s3)c2cc1OC (racemic) [Example 48, 2-(5-{1-[(6,7-dimethoxy-2-methylquinazolin-4-yl)amino]ethyl}thiophen-2-yl)-N,N-dimethylbenzamide]	5.67	5.49	5.34	–	–
COc1cc2nc(C)nc(N[C@@H](C)c3ccc(-c4ccncc4C)s3)c2cc1OC (racemic) [Example 53, 6,7-dimethoxy-2-methyl-N-{1-[5-(3-methylpyridin-4-yl)thiophen-2-yl]ethyl}quinazolin-4-amine]	6.17	5.89	5.97	–	–
COc1cc2nc(C)nc(N[C@@H](C)c3ccc(-c4ccc5cc[nH]c5c4)s3)c2cc1OC (racemic) [Example 54, N-{1-[5-(1H-indol-6-yl)thiophen-2-yl]ethyl}-6,7-dimethoxy-2-methylquinazolin-4-amine]	5.38	5.38	5.39	–	–
COc1cc2nc(C)nc(N[C@@H](C)c3ccc(-c4cncc(S(C)(=O)=O)c4)s3)c2cc1OC (racemic) [Example 127]	4.75	–	–	44	42
COc1cc2nc(C)nc(N[C@@H](C)c3ccc(-c4cnc5[nH]ccc5c4)s3)c2cc1OC (racemic) [Example 129, 6,7-dimethoxy-2-methyl-N-{1-[5-(1H-pyrrolo[2,3-b]pyridin-5-yl)thiophen-2-yl]ethyl}quinazolin-4-amine]	5.83	5.62	5.46	–	–
COc1cc2nc(C)nc(N[C@@H](C)c3ccc(-c4cccc(S(N)(=O)=O)c4)s3)c2cc1OC (racemic) [Example 130, 3-(5-{1-[(6,7-dimethoxy-2-methylquinazolin-4-yl)amino]ethyl}thiophen-2-yl)benzenesulfonamide]	5.46	5.37	4.93	–	–
COc1cc2nc(C)nc(N[C@@H](C)c3ccc(-c4cnc(N)nc4)s3)c2cc1OC (racemic) [Example 131, N-{1-[5-(2-aminopyrimidin-5-yl)thiophen-2-yl]ethyl}-6,7-dimethoxy-2-methylquinazolin-4-amine]	5.65	5.47	5.23	–	–
COc1cc2nc(C)nc(N[C@@H](C)c3ccc(/C=C/C4CC4)s3)c2cc1OC (racemic) [Example 132, N-[1-{5-[(E)-2-cyclopropylethenyl]thiophen-2-yl}ethyl]-6,7-dimethoxy-2-methylquinazolin-4-amine]	5.18	5.09	–	–	46
COc1cc2nc(C)nc(N[C@@H](C)c3ccc(-c4ccc(S(C)(=O)=O)cc4)s3)c2cc1OC (racemic) [Example 149, 6,7-dimethoxy-2-methyl-N-[1-{5-[4-(methylsulfonyl)phenyl]thiophen-2-yl}ethyl]quinazolin-4-amine]	5.63	5.37	–	–	–
COc1cc2nc(C)nc(N[C@@H](C)c3ccc(-c4cccc(NS(C)(=O)=O)c4)s3)c2cc1OC (racemic) [Example 165, N-[3-(5-{1-[(6,7-dimethoxy-2-methylquinazolin-4-yl)amino]ethyl}thiophen-2-yl)phenyl]methanesulfonamide]	4.97	4.79	–	–	–
COc1cc2nc(C)nc(N[C@@H](C)c3ccc(-c4cccc(S(C)(=O)=O)c4)s3)c2cc1OC (racemic) [Example 173, 6,7-dimethoxy-2-methyl-N-[1-{5-[3-(methylsulfonyl)phenyl]thiophen-2-yl}ethyl]quinazolin-4-amine]	5.16	5.09	–	–	–
COc1cc2nc(C)nc(N[C@@H](C)c3ccc(-c4ccc(C(=O)N(C)C)cc4)s3)c2cc1OC (racemic) [Example 176, 4-(5-{1-[(6,7-dimethoxy-2-methylquinazolin-4-yl)amino]ethyl}thiophen-2-yl)-N,N-dimethylbenzamide]	5.46	5.24	–	–	–
